According to patent US20180064682A1, “INHIBITORS OF LEUKOTRIENE-MEDIATED ACTIVITY FOR TREATING SIDE EFFECTS OF STATIN THERAPY” (Yeda Research and Development Co. Ltd., priority 2014, published 2018):

Assays:
[1] = system: Human HaCaT pre-keratinocytes; assay: ER stress-triggered cell death, Crystal violet viability, HaCaT cells; format: cell-based
Protocol: (§1) FIGS. 7A-7G. The MGST2-LTC4 pathway mediates ER stress-triggered cell death. (FIG. 7A) Mouse B16 cells were transfected with control siRNA (siControl) or MGST2-specific siRNA (siMGST2), treated with vehicle or tunicamycin (1 μg/ml, 24 hours) (Tm) and then stained with Crystal violet. Relative viability of the cells is shown. N=3 ***p<0.0001. (FIG. 7B) Mouse B16 cells were transfected with control siRNA (siControl) or MGST2-specific siRNA (siMGST2), treated with vehicle or tunicamycin (Tm) and then stained with Crystal violet. Silencing efficiency of mouse MGST2 mRNA as determined by qRT-PCR on replicate samples is shown. N=3, ***p<0.001. (FIG. 7C) HEK 293T cells were mock-transfected, transfected with pcDNA4 or with pcMGST2-FLAG, treated with vehicle (Control) or Brefeldin A (0.66 μg/ml, 24 hours) and then stained with Crystal violet. Relative viability of the cells is shown. N=3 ****p<0.0001. (FIG. 7D) Human HaCaT pre-keratinocytes were treated with vehicle (Control) or Brefeldin A (BfA, 1.33 μg/ml, 48 hours) in the absence or presence of BAY-u9773 (80 nM). The plates were then stained with Crystal violet. Relative viability of the cells is shown. N=4 ***p<0.0001. (FIG. 7E) Human WISH cells were treated either with vehicle (Control) or tunicamycin (1 μg/ml, 48 hours) in the absence or presence of BAY-u9773 (80 nM) and then stained with Neutral red. Relative viability of the cells is shown. […]

[2] = system: NOX4 in human WISH cells; assay: NOX4 levels by immunoblotting, WISH cells under ER stress; format: cell-based; details: Brefeldin A 0.66 μg/ml, 24 hours
Protocol: (§2) FIGS. 6A-6C. ER stress-triggered NADPH oxidase 4 (NOX4) expression, translocation towards the nuclei and DNA oxidation are mediated by the MGST2-LTC4 pathway. (FIG. 6A) Human WISH cells were treated with vehicle (Control) or Brefeldin A (0.66 μg/ml, 24 hours) in the absence or presence of BAY-u9773, MK571 or Montelukast. NOX4 levels were evaluated by immunoblotting. (FIG. 6B) Mouse B16 cells were treated with vehicle (Control) or tunicamycin (0.5 μg/ml, 24 hours) in the absence or presence of Montelukast, BAY-u9773 or BAY-cysLT2. NOX4 levels were evaluated by immunoblotting. (FIG. 6C) Human HaCaT pre-keratinocytes were treated with vehicle (Control) or Brefeldin A (48 hours) in the absence or presence of pranlukast or BAY-u9773, then immunostained with anti 8-OHdG. Quantitative analysis of 8-OHdG fluorescence intensity is shown. N=3 *p<0.05, ****p<0.001.
Several ligands of G-protein coupled receptors to which CysLTR1 and CysLTR2 belong elicit oxidative stress through receptor-mediated activation of NOX. Human WISH cells and Mouse B16 cells were treated with vehicle (Control) or Brefeldin A (0.66 μg/ml, 24 hours) in the absence or presence of BAY-u9773, MK571 or Montelukast and NOX4 levels were evaluated by immunoblotting.

[3] = system: Human HaCaT pre-keratinocytes; assay: ER stress-triggered oxidative DNA damage, anti 8-OHdG immunostaining, HaCaT cells; format: cell-based; details: Brefeldin A 48 hours
Protocol: as §2
Accumulation of nuclear ROS in response to ER stress will result in oxidative DNA damage. To test whether the MGST2-LTC4 pathway is involved in ER stress-triggered DNA damage, the formation of the oxidized DNA derivative 8-hydroxy-2′dexoxyguanosine (8-OHdG) was measured. […] Altogether, the ER stress-triggered DNA damage was mediated to a very large extent by the MGST2-LTC4 pathway.

[4] = system: Human HaCaT pre-keratinocytes; assay: ER stress-triggered ROS accumulation, DCFH-DA staining, HaCaT cells treated with Brefeldin A; format: cell-based; details: Brefeldin A 0.33 μg/ml, 24 hours, reversan 20 μM
Excerpt: FIGS. 4A-4E. ER stress-triggered ROS accumulation is mediated by MGST2-derived LTC4. (4A) Mouse B16 cells were transfected with control siRNA or MGST2 siRNA, then treated with tunicamycin and stained with the superoxide anion indicator dihydroethidium (DHE). Quantitation of relative DHE fluorescence intensity is presented as determined by the ImageJ program. N=3, ***p<0.001. (FIG. 4B) Mouse B16 cells were transfected with control siRNA or MGST2 siRNA, then treated with tunicamycin and stained with the superoxide anion indicator dihydroethidium (DHE). Silencing efficiency of mouse MGST2 mRNA as determined by qRT-PCR on replicate samples is shown. N=3, ***p<0.001. (FIG. 4C) Human HaCaT pre-keratinocytes were treated with Brefeldin A (0.33 μg/ml, 24 hours) with or without the MRP1 inhibitor reversan (20 μM) or the LTC4 antagonists pranlukast, BAY-cysLT2 or BAY-u9773. The cells were then stained with the ROS indicator DCFH-DA. Quantitative analysis of relative DCF fluorescence intensity is presented. […] N=3, * p<0.05. (FIG. 4D) Immunoblotting with anti FLAG tag of HEK 293T cell extract following transfection with either control pcDNA4 vector or pcMGST2-FLAG. (FIG. 4E) HEK 293T cells were either mock-transfected (Control), transfected with pcDNA4 or with pcMGST2-FLAG and then stained with DHE. Quantitative analysis of relative DHE fluorescence intensity is presented N=4, **p<0.01.
ER stress and oxidative stress are tightly associated, as ER stress triggers oxidative stress and vice versa. Therefore, a test for determining whether MGST2 and its product LTC4 are involved in ER stress-triggered ROS accumulation was performed. As previously reported, ER stress triggered by tunicamycin leads to accumulation of ROS, as detected by staining with the superoxide anion indicator dihydroethidium (DHE). […] MGST2 consumes GSH by coupling it not only to LTA4 but also to other substrates. […] Triggering ER stress by Brefeldin A generated ROS, as measured by the indicator dichloro-dihydro-fluorescein diacetate (DCFH-DA, FIGS. 4C, 5). […]

[5] = system: Human WISH cells; assay: Tunicamycin-induced cell death, Neutral red viability, WISH cells; format: cell-based; details: tunicamycin 1 μg/ml, 48 hours, BAY-u9773 80 nM
Protocol: as §1

[6] = system: differentiated mouse C2C12 myocytes; assay: Simvastatin-triggered cell death of differentiated C2C12 myocytes, Crystal violet; format: cell-based; details: for cell death triggered by simvastatin (relative cell viability): 10 uM simvastatin, 5 days, pranlukast 10 μM, BAY-cysLT2 10 μM, BAY-u9773 1 μM
Protocol: FIGS. 11A-11B. BAY-cysLT2 and BAY-u9773 but not pranlukast attenuate simvastatin-triggered cell death of differentiated C2C12 mouse myocytes. (FIG. 11A) Survival of mouse C2C12 cells following differentiation into myocytes, treated with 10 uM simvastatin for 5 days in the presence of vehicle, pranlukast (10 μM), BAY-cysLT2 (10 μM), BAY-u9773 (1 μM) or Mevalonate (71.4 μM). The plates were then stained with Crystal violet and the relative cell viability was determined. (FIG. 11B) Quantification of the staining intensity is shown.
FIGS. 12A-12B. Zileuton but not montelukast attenuates simvastatin-triggered death of differentiated C2C12 mouse myocytes. (FIG. 12A) C2C12 immortalized mouse myoblasts (15,000 cells/100 ul DMEM) were seeded for 24 and then differentiated for 3 days (initiated by serum free medium supplemented with 1×ITS medium) and then treated with […] Simvastatin with or without montelukast (2 μM), zileuton (10 μM) or mevalonate (71.4 μM). After 4 days the cells were stained with crystal violet and photographed under light microscope. (FIG. 12B) Quantification of the staining intensity is shown.
To study the role of the MGST2-LTC4 pathway in statin-triggered cell death, differentiated mouse C2C12 myocytes in 96 well plates were treated with 10 uM simvastatin or vehicle in the presence of either vehicle, BAY-cysLT2 (10 μM) or BAY-u9773 (1 μM) or sodium mevalonate for 5 days.
To study the role of the MGST2-LTC4 pathway in statin-triggered cell death, differentiated mouse C2C12 myocytes in 96 well plates were treated with 20 uM simvastatin or vehicle in the presence of either vehicle, zileuton (10 μM) or sodium mevalonate for 4 days.

[7] = system: HMGB1 released from B16 cells; assay: Release of necrosis marker HMGB1 to culture medium, immunoblot, B16 cells; format: cell-based, mouse; details: Brefeldin A 1.3 μg/ml, 24 hours, MK571
Protocol: (§3) FIGS. 8A-8C. Inhibitors of the MGST2-LTC4 Pathway Attenuate ER Stress-triggered Cell Death. (FIG. 8A) Human WISH cells were treated with vehicle (Control) or Brefeldin A (0.66 μg/ml, 48 hours) in the absence or presence of BAY-cysLT2. The plates were then stained with Crystal violet. Relative viability of the cells is shown. N=4, ***p<0.001. (FIG. 8B) Mouse B16 cells were treated with vehicle (Control) or tunicamycin (1 μg/ml, 24 hours) (Tm), thapsigargin (50 nM, 24 hours) (Tg) or Brefeldin A (BfA […], 24 hours) in the presence or absence of MK571 for 24 h. The plates were stained with Crystal violet. Relative viability of the cells is shown. N=4, ***p<0.001. (FIG. 8C) Immunoblot of the necrosis marker HMGB1 released to the culture media of B16 cells treated with vehicle (Control) or Brefeldin A (1.3 μg/ml, 24 hours) in the presence or absence of MK571. Ponceau staining serves as loading control.
(§4) On top of its activity as an MRP1 inhibitor, MK571 is a potent selective CysLTR1 antagonist.

[8] = system: Mouse B16 cells; assay: ER stress-triggered cell death, Crystal violet viability, B16 cells; format: cell-based; details: 24 hours, MK571 10 μM
Protocol: as §3, §4

[9] = system: Human WISH cells; assay: Brefeldin A-triggered cell death, Crystal violet viability, WISH cells; format: cell-based; details: Brefeldin A 0.66 μg/ml, 48 hours, BAY-cysLT2 5 μM
Protocol: as §1

Structure (SMILES): CCCCC/C=C\C\C=C/C=C/C=C/[C@@H](Sc1ccc(C(=O)O)cc1)[C@@H](O)CCCC(=O)O [BAY-u9773]
- ER stress triggered cell death (relative viability) ([1]; Brefeldin A 1.33 μg/ml, 48 hours, BAY-u9773 80 nM): attenuated ER stress triggered cell death
- NOX4 expression upon ER stress [2]: greatly inhibited NOX4 expression
- formation of nuclear 8-OHdG (oxidative DNA damage) [3]: even more effective in attenuating the DNA damage
- ROS accumulation (relative DCF fluorescence intensity) [4]: significantly inhibited ROS accumulation
- tunicamycin-induced death (relative viability) [5]: significantly attenuated tunicamycin-induced death
- cell death triggered by simvastatin (relative cell viability) [6]: attenuated cell death

Structure (SMILES): CN(C)C(=O)CCSC(SCCC(=O)O)c1cccc(/C=C/c2ccc3ccc(Cl)cc3n2)c1 (centres unmarked) [MK571]
- secretion of HMGB1 to the culture medium (cellular necrosis) [7]: reduced secretion of HMGB1
- NOX4 expression upon ER stress [2]: greatly inhibited NOX4 expression
- cell death triggered by Brefeldin A (relative viability) ([8]; Brefeldin A): significantly attenuated cell death
- cell death triggered by thapsigargin (relative viability) ([8]; thapsigargin 50 nM): significantly attenuated cell death
- cell death triggered by tunicamycin (relative viability) ([8]; tunicamycin 1 μg/ml): significantly attenuated cell death

Structure (SMILES): O=C(NCCCN1CCOCC1)c1cnn2c(-c3ccccc3)cc(-c3ccccc3)nc12 [reversan]
- ROS accumulation (relative DCF fluorescence intensity) [4]: small but statistically insignificant inhibitory effect on ROS accumulation

Structure (SMILES): CC(c1cc2ccccc2s1)N(O)C(N)=O (centres unmarked) [zileuton]
- death triggered by proteasome inhibitor MG262 (relative viability) ([1]; MG262 50 nM, 24 hours, zileuton 10 μM): significantly protected HaCaT keratinocytes from death
- cell death triggered by simvastatin (staining intensity) ([6]; 20 uM simvastatin, 4 days, zileuton 10 μM, montelukast 2 μM): attenuated cell death

Structure (SMILES): O=C(O)c1ccc(OCCCc2ccc(OCCCCOc3ccccc3)cc2)c(C(=O)NC2CCCC(C(=O)O)C2)c1 (centres unmarked) [BAY-cysLT2]
- ROS accumulation (relative DCF fluorescence intensity) [4]: significantly inhibited ROS accumulation
- Brefeldin A-triggered death (relative viability) [9]: equally protected these cells from Brefeldin A
- cell death triggered by simvastatin (relative cell viability) [6]: attenuated cell death
